Test results taken from patent US8772493B2, “Compounds having auditory protective effect” (Ajou University Industry-Academic Cooperation Foundation, priority 2010, dated 2014).

Key:
Format in all cases: cell-based
HEI-OC1 [1] = test: MTT assay in auditory cells HEI-OC1
Protocol: HEI-OC1 and UB-OC1 as auditory cells were subjected to MTT assay. Auditory cell lines were seeded on a 96-well plate in the ratio of 2×10^3 cells/well, and then cultured in an incubator under the condition of 37° C., 5% CO2 for 2 days. The compounds of Examples 1 and 2 were used at various concentrations with operating 5 runs for each sample, and then cultured in the incubator for 16 hours. The plate was treated with 1 mg/ml MTT solution per well, and then cultured in the incubator for 4 hours. Then, 100 μl DMSO per well was used to dissolve formazan, and the optical density of formazan as dissolved was measured at 540 nm.

HEI-OC1 [2] = test: TUNEL assay
Protocol: 3×10^5 cells were seeded on the 6-well, incubated, then starved for 24 hours, and treated with the drug of the present invention by conditions, and then incubated for 24 hours. The cells were fixed with addition of 4% paraformaldehyde at normal temperature for 30 minutes, then washed two times with PBS, and treated with the permeablilization solution comprising 0.1% Triton X-100 at normal temperature for 10 minutes. The cells were washed again two times with PBS, and after adding terminal deoxynucleotidyl transferase (TDT) and nucleotide mixture, incubated for one hour with blocking out the light at 37° C. After washing two times with PBS, the apoptosis of cells was examined under fluorescence microscope. For control staining of cells without apoptosis, 4,6-diamino-2-phenylindole (DAPI, Sigma) solution was used. The stained cells were analyzed using a fluorescence microscope (Carl Zeiss, Oberkochen, Germany). TUNEL-positive cells were manually counted under a 200× magnification field in triplicate.

HEI-OC1 cells = test: Measurement of intracellular ROS generation (DCFDA); conditions: 50 μM cisplatin plus compound (100 μg/ml), 16 h
Protocol: Intracellular generation of ROS was quantified using 5-(and 6)-carboxyl-20,70-dichlorodihydro fluorescein diacetate (DCFDA; Molecular Probes, Eugene, Oreg., USA). […] ROS generation at various time points was checked and the amount of ROS generation was the highest at 16 h. Therefore, 16 h as the time point for ROS detection was chosen for subsequent experiments. Cells were incubated in the dark with 10 μM DCFDA in serum-free medium for 10 min at 33° C. The oxidative burst (hydrogen peroxide, H2O2) was detected using a FACScan flow cytometer (Becton Dickinson, Franklin Lakes, N.J., USA) with excitation and emission settings at 488 and 530 nm, respectively.

In the case of NC1(c2ccc(F)cc2)C(=O)Nc2ccccc2C1=O (stereo not drawn) [Example 1, 3-amino-3-(4-fluorophenyl)quinolin-2,4(1H,3H)-dione], the “cisplatin-induced apoptosis of auditory hair cells (MTT)” value (HEI-OC1 [1]; HEI-OC1, 50 of cisplatin plus compound, as the dose of the compound increases) is reported as “statistically significantly inhibited”, the “cytotoxicity in auditory hair cells (MTT)” value (HEI-OC1 [1]; HEI-OC1, compound alone, up to elevated dose of 200) is reported as “substantially no cytotoxicity” and the “apoptosis of auditory cells (TUNEL), cisplatin and compound at the same time” value (HEI-OC1 [2]; cisplatin (50 μM with Example 1, 20 μM with Example 2) and compound administered at the same time) is reported as “inhibited”. For the same compound, the “apoptosis (TUNEL positive cells) on administration of compound alone” value (HEI-OC1 [2]; compound alone) was “did not cause apoptosis”, the “effect of 100 μM compared to 50 μM of compound (TUNEL)” value (HEI-OC1 [2]; with cisplatin, dose-dependent manner) was “better effect” and the “cisplatin-induced intracellular ROS generation” value (HEI-OC1 cells) was “significantly inhibited”.
